Each structure is given as a SMILES string.

The test relates to T1, GCaMP5-expressing T. gondii.
T1 construct: whole extracellular parasites expressing GCaMP5 Ca2+ sensor
The arrangement: species or system GCaMP5-expressing Toxoplasma gondii, extracellular; GCaMP5 fluorescence (cytosolic Ca2+) after 100 uM zaprinast in compound-pretreated extracellular parasites, background-subtracted, relative to zaprinast alone. Particulars: 100 uM zaprinast stimulation; 10 min pretreatment; mean of two replicates; 0.23 h. How it is done: GCaMP5-expressing parasites were suspended in Ringer's solution at 4 × 10^7 parasites/ml, and 50 μl of parasites were applied to each well of a 96-well plate (Costar, catalog no. 3631). […] Parasites were then treated with 100 μM zaprinast or 0.1% DMSO as a vehicle control and incubated at 37 °C with 5% CO2 for an additional 4 min before measuring fluorescence with excitation and emission wavelengths of 485 and 525 nm, respectively, on a SpectraMax M3 (Molecular Devices). Basal fluorescence, measured from untreated parasites, was subtracted from all values, and results were expressed as -fold change from parasites treated only with zaprinast. Z′ factors were determined from (i) parasites treated with zaprinast versus untreated parasites and (ii) parasites treated with a final concentration of 1 μM Cpd2 or a vehicle control followed by zaprinast, using the formula, Z′ = 1 − 3(σp + σn)/(|μp − μn|), where σp and σn indicate S.D. values of positive and negative controls, and μp and μn indicate the means of positive and negative controls, respectively. […] We predicted that the zaprinast response measured in GCaMP5-expressing parasites could form the basis for a phenotypic screen. Such a screen would benefit from the known importance of Ca^2+ signaling in parasite biology along with the reported success rate of cell-based phenotypic assays. We designed a screen wherein extracellular GCaMP5-expressing parasites were pretreated with compounds for 10 min before stimulation with zaprinast, and parasite fluorescence was measured 4 min later. We expected that compounds that interfered with the zaprinast response would reduce fluorescence. We calculated a Z′-factor for this screen to determine its dynamic range and suitability to high throughput screening. To do so, we compared zaprinast-treated parasites to untreated parasites or those pretreated with the PKG inhibitor Compound 2 (Cpd2) ([55]). […] We obtained the compound libraries published kinase inhibitor sets PKIS1 ([57]) and PKIS2 (unpublished), from GlaxoSmithKline and applied our phenotypic screen to the 823 ATP mimetics represented in these collections (Fig. 2B and supplemental Table S1). The compounds were screened at a single 10 μM dose with two biological replicates.
As for `Cc1ccc(Nc2ccnc(Nc3cccc(C(N)=O)c3)n2)cc1O` [GW575808A], the “fold change in fluorescence relative to zaprinast alone” value is reported as 1.342.
Take `Nc1ncc(-c2ccncc2)c2scc(-c3ccc4c(c3)CCN4C(=O)Cc3ccccc3)c12` [GSK2592465A]: the “fold change in fluorescence relative to zaprinast alone” value is reported as 1.243.
Under `Cc1cccc(-c2cc(-c3cn[nH]c3-c3ccccn3)ccn2)c1` [GW679395X] stands 0.9312; under `O=C1Nc2ccc(-c3cccnc3)cc2C1=Cc1cc(Br)c(O)c(Br)c1` [GW429374A], 1.179; under `COc1cccc(-n2ncc3c(N/N=C/c4ccc(C)cc4)ncnc32)c1` [GW829877X], 1.18.
Under `Cc1ccn2nc(-c3ccc(F)cc3)c(-c3ccncc3)c2c1` [GW457859A] stands 0.07245; under `Nc1nc(-c2ccccn2)c(-c2ccnc3ccccc23)s1` [GW548057X], 0.7803; under `CCn1c(-c2nonc2N)nc2c(C#CC(C)(C)O)nc(OCCNC)cc21` [GSK949675A], 1.152.
On to `FC(F)(F)c1cc(Nc2nccc(-c3c(-c4ccc(Cl)cc4)nn4ncccc34)n2)ccc1Cl` [GW829351X], for which the “fold change in fluorescence relative to zaprinast alone” value amounted to 0.8408.
With `O=C(Nc1n[nH]c2cc(-c3cccc(F)c3)ccc12)C1CC1` [SB-735464], the “fold change in fluorescence relative to zaprinast alone” value was found to be 1.069.
In the case of `COc1cccc(-n2ncc3c(N/N=C/c4ccc(C(=O)NCCN(C)C)cc4)ncnc32)c1` [GW784307A], the “fold change in fluorescence relative to zaprinast alone” value stood at 0.4737.
On to `O=C(NCCCN1CCOCC1)c1cccc(Nc2nccc(Nc3ccc(Oc4ccccc4)cc3)n2)c1` [GW663929X], for which the “fold change in fluorescence relative to zaprinast alone” value was 1.429.
Under `Cc1ccc(C(=O)Nc2ccc(Nc3ccnc4cc(-c5ccccn5)ccc34)cc2O)cc1` [GW440146A] stands 2.166.
With `Cc1ccc(Nc2ccnc(Nc3ccc4c(c3)CS(=O)(=O)C4)n2)cc1O` [GW579362A], the “fold change in fluorescence relative to zaprinast alone” value is given as 1.38.
With `O=C1NC(=O)C(c2ccc(Cl)cc2)=C1Nc1cccc(Cl)c1` [SB-317651], the “fold change in fluorescence relative to zaprinast alone” value came to 0.9895.
For `Cc1cc(N2Cc3ccccc3C2)nc(Nc2ccc(S(=O)(=O)N3CCOCC3)cc2)n1` [GSK1669917A], the “fold change in fluorescence relative to zaprinast alone” value is on record as 1.107.
As for `Cn1c(-c2nonc2N)nc2cnccc21` [SB-736290], the “fold change in fluorescence relative to zaprinast alone” value was 1.181.
With `O=C(Nc1n[nH]c2cc(-c3ccccc3F)ccc12)C1CC1` [SB-733371] the figure was 0.8641; with `CS(=O)(=O)CCNCc1cc(-c2cc3c(Nc4ccc(OCc5cccc(F)c5)c(Cl)c4)ncnc3s2)cs1` [GSK300014A], 1.033; with `O=C(NCCNc1ccnc(NCc2ccc(F)cc2)n1)c1cc2ccccc2s1` [GSK1379944A], 0.7055.
As to `FC(F)(F)c1ccc(-c2cc(-c3cn[nH]c3-c3ccccn3)ccn2)cc1` [GW599550X], the “fold change in fluorescence relative to zaprinast alone” value came to 1.459.
Consider `Cc1ccc(C(=O)NC2CCCC2)cc1-c1ccc(C(=O)NCC2CC2)cc1` [GW800172X], for which the “fold change in fluorescence relative to zaprinast alone” value is listed as 1.109.
Under `O=S(=O)(CCOCc1ccc(-c2ccc3ncnc(Nc4ccc(OCc5cccc(F)c5)c(Cl)c4)c3c2)o1)c1ccccc1` [GW615311X] stands 1.258; under `COc1ccc(CNC(=O)NC2CCN(c3ccnc(Nc4ccc(OC)cc4)n3)C2)cc1` (centres unmarked) [GSK1379727A], 1.253.
Consider `NC(=O)c1ccc(-c2nc(-c3ccccn3)c(-c3ccc4c(c3)OCO4)[nH]2)cc1` [SB-431542-A], for which the “fold change in fluorescence relative to zaprinast alone” value was determined as 1.08.
Regarding `C=CC(=O)Nc1cc2c(Nc3ccc(F)c(Cl)c3)ncnc2cc1OCCCN1CCOCC1` [GW781483X], the “fold change in fluorescence relative to zaprinast alone” value is 1.29.
On to `COc1ccc(Nc2nccc(N3CCC(NC(=O)Nc4cc(C)ccc4C)C3)n2)cc1` (centres unmarked) [GSK1379741A], for which the “fold change in fluorescence relative to zaprinast alone” value amounted to 1.033.
For the molecule `COc1cc2ncn(-c3cc(OCc4cccs4)c(C(N)=O)s3)c2cc1OC` [GSK312948A], the “fold change in fluorescence relative to zaprinast alone” value was 1.205.
With `COc1ccc(C2=C(N3CCc4ccccc43)C(=O)NC2=O)cc1` [SB-361058], the “fold change in fluorescence relative to zaprinast alone” value was found to be 1.153.
Take `CC(C(=O)NC1CCN(c2ccnc(Nc3ccc(F)cc3)n2)C1)c1ccc(Cl)cc1` (centres unmarked) [GSK1379713A]: the “fold change in fluorescence relative to zaprinast alone” value turned out to be 0.7096.
For the molecule `CN(C)S(=O)(=O)c1cc(-c2ccc3nccc(-c4cccc(S(N)(=O)=O)c4)c3c2)cnc1N` [GSK1669921A], the “fold change in fluorescence relative to zaprinast alone” value is on record as 1.101.
Regarding `c1ccc(Nc2ncc(-c3ccccc3)o2)cc1` [GW549390X], the “fold change in fluorescence relative to zaprinast alone” value stood at 1.88.
With `O=C1NC(=O)C(c2cccc(Cl)c2)=C1Nc1ccc(O)c(Cl)c1` [SB-409514] the figure was 1.132; with `COc1cc2ncnc(Nc3cccc(Br)c3)c2cc1OC` [GI230329A], 1.268.
Under `FC(F)(F)c1ccc(-c2nn3ncccc3c2-c2ccnc(Nc3cccc(C(F)(F)F)c3)n2)cc1` [GW828205X] stands 0.4128; under `COc1cc(Nc2ncc3c(C)nc(-c4cccc(Oc5ccccc5)c4)n3n2)cc(OC)c1OC` [GW861893X], 0.7386; under `FC(F)(F)c1cccc(Nc2nccc(-c3cnn4nc(-c5ccccc5)ccc34)n2)c1` [GW819077X], 0.1467.
Take `Cc1cc(N2CCC(NS(=O)(=O)c3ccc(F)cc3)CC2)nc(Nc2cccc(C#N)c2)n1` [GSK1653537A]: the “fold change in fluorescence relative to zaprinast alone” value turned out to be 0.8395.
As to `CCS(=O)(=O)c1ccc(OC)c(Nc2ncc(-c3cccc(C(C)=O)c3)o2)c1` [GW621431X], the “fold change in fluorescence relative to zaprinast alone” value is given as 1.216.
Turning to `Nc1ncc(-c2ccc3nccc(-c4ccncc4)c3c2)cc1S(=O)(=O)N1CCOCC1` [GSK1627798A], the “fold change in fluorescence relative to zaprinast alone” value was 1.041.
For `Cc1cc(NCC(c2ccccc2)c2ccccc2)nc(NCc2ccc(C(F)(F)F)cc2)n1` [GW497681X], the “fold change in fluorescence relative to zaprinast alone” value amounted to 1.268.
With `FC(F)(F)c1ccc(-c2nn3ncccc3c2-c2ccnc(Nc3ccccc3)n2)cc1` [GW828206X], the “fold change in fluorescence relative to zaprinast alone” value stood at 0.303.
Take `COc1nccc(-c2c(-c3ccc(F)cc3)ncn2CCCN2CCOCC2)n1` [SB-282852]: the “fold change in fluorescence relative to zaprinast alone” value came to 0.8251.
In the case of `NCCNS(=O)(=O)c1ccc(-c2ccnc3[nH]ccc23)cc1` [GSK977617A], the “fold change in fluorescence relative to zaprinast alone” value is given as 1.223.
In the case of `Nc1ccc(C#Cc2cncnc2Nc2ccc(OCc3cccc(F)c3)c(Cl)c2)cc1` [GW659893X], the “fold change in fluorescence relative to zaprinast alone” value turned out to be 0.972.
As for `O=C(Nc1n[nH]c2nc(-c3ccco3)ccc12)C1CC1` [SB-743899], the “fold change in fluorescence relative to zaprinast alone” value came to 1.211.
With `CCn1c(-c2ccoc2)nc2cnccc21` [SB-733887] the figure was 1.127; with `COc1cc2ncn(-c3cc(OCc4sccc4Cl)c(C(N)=O)s3)c2cc1OC` [GSK448459A], 1.439; with `COc1cc(Nc2nccc(N3CCC(NC(=O)c4cccc(C#N)c4)C3)n2)cc(OC)c1OC` (centres unmarked) [GSK1379751A], 1.563.
Turning to `CN(C)C(=O)O[C@H]1CN[C@H](C#Cc2cc3ncnc(Nc4ccc(OCc5cccc(F)c5)c(Cl)c4)c3s2)C1` [GSK182497A], the “fold change in fluorescence relative to zaprinast alone” value came out at 1.183.
With `CN(C)CC(O)COc1ccc(Nc2nccc(-c3cnn4nc(N5CCOCC5)ccc34)n2)cc1` (centres unmarked) [GW767488X] the figure was 0.9765; with `Cc1cc(O)cc(C)c1/C=C/c1cncc(C(=O)N(C)C)c1` [GW427984X], 1.241; with `Fc1ccc(-c2nn3ccccc3c2-c2ccncc2)cc1` [GW434756X], 0.1696.
`COc1ccc(-c2nc3n(c2-c2ccncc2)CCC3)cc1` [SKF-104493-B2]: the “fold change in fluorescence relative to zaprinast alone” value came to 0.9045.
With `C/C(Nc1ccc(S(N)(=O)=O)cc1)=C1/C(=O)Nc2ccccc21` [GW335962X], the “fold change in fluorescence relative to zaprinast alone” value was found to be 1.108.
For `Cc1cc(O)cc(C)c1/C=C/c1cncc(-c2nn[nH]n2)c1` [GW441806A], the “fold change in fluorescence relative to zaprinast alone” value was determined as 1.117.

For the origin of these results see article PMC4850295, “Using a Genetically Encoded Sensor to Identify Inhibitors of Toxoplasma gondii Ca^2+ Signaling” (The Journal of Biological Chemistry, 2016).
